Values quoted from earlier work as cited in patent US20150133410A1, “TOPICAL OPHTHALMIC, OTIC, AND NASAL COMPOSITIONS OF CIPROFLOXACIN” (priority 2013, published 2015).
Read-outs that look alike come from different tables or passages of the source.

Conditions: aqueous solutions of about 0.2 to about 1 weight percent

pH above which crystalline precipitation of ciprofloxacin occurs (5° C.): above 5 | pH above which crystalline precipitation of ciprofloxacin occurs (room temperature): above 5.5
SMILES: O=C(O)c1cn(C2CC2)c2cc(N3CCNCC3)c(F)cc2c1=O [ciprofloxacin]
